Data on eleven compounds can be found in patent US20130261114A1, “COMPOUNDS USEFUL AS INHIBITORS OF CHOLINE KINASE” (priority 2011, published 2013).

Where “and” joins values, the source holds several entries; their conditions need not be identical. Identical values can stand only once.

For this assay, the target named is T1, Choline Kinase alpha enzyme (Homo sapiens, UniProt P35790).
T1 construct: hChoKα1 (M1-V457) (NP_001268); GST (N); made in house; host or cells: E. coli BL21(DE3)
T1 sequence (P35790 whole entry): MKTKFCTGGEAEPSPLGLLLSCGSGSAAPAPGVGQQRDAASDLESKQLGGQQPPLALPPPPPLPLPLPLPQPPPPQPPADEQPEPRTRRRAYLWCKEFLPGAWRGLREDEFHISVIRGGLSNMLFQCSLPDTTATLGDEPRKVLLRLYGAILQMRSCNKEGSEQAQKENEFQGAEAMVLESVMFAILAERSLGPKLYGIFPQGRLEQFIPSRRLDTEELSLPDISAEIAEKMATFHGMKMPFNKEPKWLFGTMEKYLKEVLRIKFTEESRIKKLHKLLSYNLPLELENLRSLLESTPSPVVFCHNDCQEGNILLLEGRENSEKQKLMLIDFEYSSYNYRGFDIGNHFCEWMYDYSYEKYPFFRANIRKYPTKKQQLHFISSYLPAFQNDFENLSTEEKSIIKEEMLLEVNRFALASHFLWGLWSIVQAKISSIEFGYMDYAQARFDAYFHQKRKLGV
As to the kind of experiment: Choline Kinase Alpha Inhibition Assay. The assay is classed as biochemical. The conditions noted are these: 20 nM enzyme, 200 μM choline chloride, 400 μM ATP, 25° C., coupled NADH absorbance at 340 nm; read-out: IC50 values (inhibiting Choline Kinase Alpha). As to the method: An assay buffer solution was prepared which consisted of 100 mM Tris-HCl (pH 7.5), 100 mM KCl, and 10 mM MgCl2. An enzyme buffer containing reagents to final assay concentrations of 290 μM NADH, 2.4 mM phosphoenolpyruvate, 60 μg/mL pyruvate kinase, 20 μg/mL lactate dehydrogenase, 200 μM choline chloride substrate and 20 nM Choline Kinase alpha enzyme was prepared in assay buffer. To 32 μL of this enzyme buffer, in a 96 well plate, was added 2 μL of VRT stock solution in DMSO. The mixture was allowed to equilibrate for 10 mins at 25° C. The enzyme reaction was initiated by the addition of 32 μL stock ATP solution prepared in assay buffer to a final assay concentration of 400 μM. Initial rate data was determined from the rate of change of absorbance at 340 nm (corresponding to stoichiometric consumption of NADH) using a Molecular Devices Spectramax plate reader (Sunnyvale, Calif.) over 15 mins at 25° C. For each IC50 determination, 12 data points covering the VRT concentration range of 0-100 μM were obtained in duplicate (DMSO stocks were prepared from an initial 10 mM VRT stock with subsequent 1:2.5 serial dilutions). IC50 values were calculated from initial rate data using the Prism software package (Prism 4.0a, Graphpad Software, San Diego, Calif.).
hChoKα1 (M1-V457) (NP_001268) was codon optimized for E. coli and cloned into a modified pGEX-2T vector. Recombinant GST-tagged ChoKα1 protein was produced in E. coli strain BL21(DE3). After growing cell cultures at 37° C. until the OD600=1, the cultures were induced with 1 mM IPTG for 16 h at 30° C. and the cells were harvested as a pellet (8500 rpm, 4° C., 20 min). The protein was purified using glutathione affinity purification followed by size exclusion via Superdex-200 26/60 (GE Healthcare). See Malito, Enrico et. al., “Journal of Molecular Biology”, Volume 364, Issue 2, pages 136-151 (November 2006).
For the compound `Cc1ccccc1C(O)(Cc1ccccc1)C1CN2CCC1CC2` (single isomer, unassigned) [Compound I-78, 1-(o-tolyl)-2-phenyl-1-quinuclidin-3-yl-ethanol], the half-inhibitory concentration (IC50) (in general, the concentration that inhibits the measured activity by half) was less than 100 nM. With `Cc1ccccc1C(O)(Cc1ccccc1)C1CN2CCC1CC2` (single isomer, unassigned) [Compound I-84, 1-(o-tolyl)-2-phenyl-1-quinuclidin-3-yl-ethanol] the figure was 1000 to 75000 nM; with `CN(C)c1ccc(CCC(O)(c2ccc(N(C)C)cc2)C2CN3CCC2CC3)cc1` (centres unmarked) [Compound I-17], 1000 to 75000 nM; with `CN(C)c1ccc(C(O)(c2ccc(N(C)C)cc2)C2CN3CCC2CC3)cc1` (centres unmarked) [Compound I-79], 100 to 1000 nM and 1000 to 75000 nM. With `OC(Cc1ccccc1)(c1ccccc1)C1CN2CCC1CC2` (centres unmarked) [Compound I-80] the figure was 100 to 1000 nM; with `OC(c1ccc(Cl)s1)(c1ccc(Cl)s1)C1CN2CCC1CC2` (centres unmarked) [Compound I-81], 100 to 1000 nM. Under `OC(c1cccc(Cl)c1)(c1cccc(Cl)c1)C1CN2CCC1CC2` (centres unmarked) [Compound I-82] stands 1000 to 75000 nM; under `OC(Cc1ccccc1)(Cc1ccccc1)C1CN2CCC1CC2` (centres unmarked) [Compound I-83], 1000 to 75000 nM.

For the compound `OC(c1ccccc1)(c1ccccc1Cl)C1C[N@]2CC[C@@H]1CC2` (some centres unmarked) [Compound I-85], the IC50 lay within 100 to 1000 nM. With `OC(c1ccccc1)(c1ccc(Cl)cc1)C1C[N@]2CC[C@@H]1CC2` (some centres unmarked) [Compound I-86] the figure was 100 to 1000 nM; with `OC(c1ccccc1)(c1ccccc1)C1CN2CCC1CC2` (centres unmarked) [Compound I-87], 100 to 1000 nM.
